For assay [1], the system named is antigen-specific IFN-gamma response to R9F peptide (splenocytes). In words: IFN-gamma ELISPOT immunogenicity of DPX vaccine (Example 14). Format: in vivo, mouse (C57BL6). As to conditions: R9F+F21E in DPX with 5 micrograms lipid A mimic, FIG. 8; for enhancement of antigen-specific IFN-gamma response to R9F: s.c., spleens eight days after vaccination. The text has this: (§1) Pathogen-free, female C57BL6 mice, 6-8 weeks of age were purchased from Charles River Laboratories (St. Constant, Quebec, Canada) and were housed according to institutional guidelines with water and food ad libitum under filter controlled air circulation.
The peptides used in this example were synthesized by Polypeptide Group (San Diego, Calif., USA). Vaccines contained the MHC class I epitope HPV16E7 (H-2Db) 49-67 (RAHYNIVTF, R9F; […]; SEQ ID NO: 23).
(§2) To formulate vaccines described herein, a 10:1 mixture of dioleoyl phosphatidylcholine (DOPC) (120 milligrams/mL) and cholesterol (12 milligrams/mL) was solubilized in tert-butanol. R9F and F21E peptide antigens were first solubilized in dimethyl sulfoxide and then added to the DOPC/cholesterol/tert-butanol mixture. The lipid A mimics JL-265 and JL-266 were first solubilized in dimethyl sulfoxide. Where indicated, JL-265 or JL-266 were also added to the FP/DOPC/tert-butanol mixture. A dry homogeneous mixture of antigen with or without lipid A mimic was prepared by removing the solvent and water present in the formulation by lyophilization. The dry mixture was then suspended in Incomplete Freund's adjuvant, a mineral oil-based model hydrophobic carrier. This formulation is henceforth referred to as DepoVax (DPX).
To test the immunogenicity of the vaccine, naïve mice (n=5) were immunized subcutaneously with 50 microlitres of DPX vaccine containing R9F and F21E with no lipid A mimic (Group 1), 5 micrograms of JL-265 (Group 2) or 5 micrograms of JL-266 (Group 3). Mice in Group 4 (n=2) were not immunized and served as the naïve control. Eight days after vaccination, mice in all groups were terminated and spleens collected. A single cell suspension of splenocytes was prepared at a concentration of 5×10E6 cells per milliliter and 100 microlitres added to wells of a 96-well ELISPOT plate pre-coated with anti-IFN-gamma (BD Bioscience). In duplicate, 100 microlitres of media containing 20 micrograms per milliliter of an irrelevant peptide antigen or R9F was added to the splenocytes, or media containing no peptide as a background control. The plate was incubated overnight at 37° C. and developed next day following manufacturers instructions using AEC chromogen (Sigma-Aldrich). Spots were quantified using ELISPOT plate reader (C.T.L., Shaker Heights).

In assay [2] the test system is C3 tumors (HPV16-expressing C3 cells). The experiment in a line: C3 tumor challenge, DepoVax (DPX) vaccine (Example 12). It is filed as in vivo, mouse (C57BL6). As to conditions: for tumor volume fold smaller than control DepoVax composition (Group 1): Table 2, DepoVax; for Tumor Volume (mm^3): Table 2, Example 12, FP peptide 10 micrograms + lipid A mimic 10 micrograms in DepoVax, s.c. on day 5 after C3 implantation; for tumor volumes compared to control groups: at 40 days, DPX vaccine, FIG. 6.
Source text: as §1
(§3) The C3 tumor cell line used in this study is a well-described mouse model for pre-clinical cervical cancer research. HPV16-expressing C3 cells are derived from B6 mouse embryo cells transformed with the complete HPV16 genome under its own promoter and an activated-ras oncogene. The C3 cell line develops tumors when injected subcutaneously and has been used in cancer challenge studies to examine the efficacy of vaccine administered before or after C3 tumor cell implantation. The C3 cell line was maintained in Iscove Modified Dulbecco's Medium (IMDM; Sigma, St. Louis, Mo.) supplemented with 10% heat-inactivated fetal calf serum (Hyclone), 2 mM 1-glutamine, […] 2-mercaptoethanol, penicillin and streptomycin. Cells were incubated at 37° C./5% CO2.
(§4) The HPV16E7 (H-2Db) peptide 49-67, RAHYNIVTF (SEQ ID NO: 1), containing a CTL epitope was fused to PADRE containing a CD4+ T helper epitope by Polypeptide Group (San Diego, Calif., USA). This peptide is hereafter designated as FP.
as §2, with “in tert-butanol. FP antigen was first solubilized” for “in tert-butanol. R9F and F21E peptide antigens were first solubilized”, “in dimethyl sulfoxide, although a water suspension of FP can also be used, and then” for “in dimethyl sulfoxide and then”
(§5) To test the efficacy of these oil-based vaccine formulations, groups of mice (8 mice per group) were implanted subcutaneously in the left flank with 5×10E5 C3 cells suspended in 100 microlitres of HBSS media. Five days later, mice were vaccinated subcutaneously in the right flank with 50 microlitres of vaccine. Mice in Group 1 were vaccinated with FP peptide (10 micrograms) in DPX containing no lipid A mimic. Mice in Group 2 were vaccinated with FP peptide (10 micrograms) in DPX containing JL-265 (10 micrograms). Mice in Group 3 were vaccinated with FP peptide (10 micrograms) in DPX containing JL-266 (10 micrograms). Mice in Group 4 served as a tumor growth control and were vaccinated with saline containing no antigen or lipid A mimic.

The test system of assay [3] is bone marrow dendritic cells of C3H/HeOuJ (wild-type) mice. In words: Dendritic cell activation (CD40/CD86, flow cytometry), wild-type cells (Example 13). It is filed as cell-based, mouse. To be noted: FIG. 7; for expression of CD40 and CD86 on CD11c positive dendritic cells: wild-type dendritic cells, 20 micrograms/millilitre, overnight stimulation; for induction of CD40 and CD86 relative to LPS: wild-type mice dendritic cells. Here is the method:
(§6) Pathogen-free, female C3H/HeOuJ (wild-type) mice and C3H/HeJ (TLR4 mutant) mice, 6-8 weeks of age were purchased from the Jackson Laboratory (Bar Harbor, Me., USA) and were housed according to institutional guidelines with water and food ad libitum under filter controlled air circulation.
(§7) Dendritic cells were prepared from bone marrow of either wild-type or TLR4 mutant mice as follows. Femurs and tibia bones were isolated from naïve mice and flushed under sterile conditions with phosphate buffered saline. Red blood cells were lysed using ammonium chloride potassium lysing solution. Cells were counted and resuspended in complete RMPI 1640 media containing 10% fetal bovine serum (Hyclone, Nepean, ON, Canada), 1% penicillin-streptomycin (Gibco, Burlington, ON, Canada), 2 millimolar L-glutamine (Gibco), 1% HEPES buffer (Gibco) and […] beta-mercaptoethanol (Sigma-Aldrich, Oakville, ON, Canada) at a concentration of 1.2×10E6 cells/millitre. Cells were cultured in a 6-well plate supplemented with 10 nanograms/milliliter of GM-CSF (Peprotech, Rocky Hill, N.J., USA) for 8 days, additional media was added on day 3 and day 6. On day 7, cells were stimulated with JL-265 or JL-266 prepared in DMSO, or DMSO vehicle control, or poly I:C (Thermo-Fisher), or lipopolysaccharide (LPS; Sigma-Aldrich). Non-adherent cells were collected on day 8 and stained with fluorochrome-conjugated antibodies specific for CD11c (clone), CD40 (clone) or CD86 (Clone). Cells were analyzed by flow cytometry using a FACSCalibur (BD Bioscience, Mississauga ON, Canada) and Win List 3D 7.0 software (Verity Software House, Topsham, Me., USA).
(§8) Results were analysed by gating first on CD11c positive cells (dendritic cell marker), then determining the percent that were double positive for CD40 or CD86.
In general terms: Flow cytometry measures light scatter and fluorescence of single cells or particles in a stream.

Assay [4] deals with C3 tumors (HPV16-expressing C3 cells). The experiment in a line: C3 tumor challenge, oil-based (IFA) vaccine (Example 11). Format: in vivo, mouse (C57BL6). As to conditions: at 28 days; FP peptide 10 micrograms in oil (IFA) with 10 micrograms lipid A mimic, FIG. 5.
Source text: as §1, §3, §4
To formulate the vaccine herein, FP peptide was solubilized in dimethyl sulfoxide and mixed with Incomplete Freund's adjuvant (IFA). […]

Assay [5] shares this test system. In words: C3 tumor challenge, aqueous liposome vaccine (Example 10). Format: in vivo, mouse (C57BL6). To be noted: for Tumor Volume (mm^3): Table 1, Example 10, FP peptide 10 micrograms + lipid A mimic 10 micrograms in liposomes, water carrier, s.c. on day 5 after C3 implantation; for tumor volumes compared to control groups: at 28 days, liposome vaccine, FIG. 4.
Source text: as §1, §3, §4
To formulate the vaccines herein, 160 micrograms of FP was mixed with a DOPC/cholesterol mixture (10:1, w/w, Lipoid GmbH, Germany) dissolved in tert-butanol. When lipid A mimics were included, 160 micrograms of JL-265 or JL-266 were added to the FP/DOPC/chol mixture. The mixture was lyophilized and then reconstituted in reconstituted in […] of sterile water to formulate liposomes containing antigen with or without lipid A mimic. Each vaccine dose was 50 microlitres and contained 10 micrograms of FP peptide with or without 10 micrograms of lipid A mimic (JL-265 or JL-266).
as §5, with “liposome-based” for “oil-based”, “(7” for “(8”, “liposomes” for “DPX”

Assay [6] relates to bone marrow dendritic cells of C3H/HeJ (TLR4 mutant) mice. In words: Dendritic cell activation (CD40/CD86, flow cytometry), TLR4 mutant cells (Example 13). Format: cell-based, mouse. As to conditions: FIG. 7; for expression of CD40 and CD86 on CD11c positive dendritic cells, versus wild-type: TLR4 mutant dendritic cells, 20 micrograms/millilitre, overnight stimulation; for induction of CD40 and CD86 relative to LPS: TLR mutant mice dendritic cells. As to the method: as §6, §7, §8

This note sets out measurements from patent US10988500B2, “Lipid A mimics, methods of preparation, and uses thereof” (Immunovaccine Technologies Inc., priority 2015, dated 2021).

`CCCCCCCCCCCCCC(=O)O[C@H](CCCCCCCCCCC)CC(=O)NC1C(OC(=O)C[C@@H](CCCCCCCCCCC)OC(=O)CCCCCCCCCCCCC)[C@H](OP(=O)(O)O)C(CO)O[C@H]1OCCN(C(=O)C[C@@H](CCCCCCCCCCC)OC(=O)CCCCCCCCCCCCC)c1cccc(O)c1` (stereo in doubt) [JL-265]: the “enhancement of antigen-specific IFN-gamma response to R9F” value in assay [1] (versus no lipid A mimic) is listed as “did not enhance”. The “generation of an immune response (IFN-gamma ELISPOT)” value in assay [1] is recorded as “capable of generating an immune response”. In assay [2], the “tumor volume fold smaller than control DepoVax composition (Group 1)” value is “about 3.1 fold”, the “Tumor Volume (mm^3)” value is on record as 445 ± 395 mm^3 and the “tumor volumes compared to control groups” value was “significantly smaller tumor volumes”. For the same molecule, in assay [3], the “expression of CD40 and CD86 on CD11c positive dendritic cells” value is reported as “strong increased expression”; the “induction of CD40 and CD86 relative to LPS” value is “the same as LPS”. Besides, the “tumor volumes compared to control groups” value in assay [4] is given as “significantly smaller tumor volumes”. In assay [5], the “Tumor Volume (mm^3)” value turned out to be 319 ± 122 mm^3 and the “tumor volumes compared to control groups” value is reported as “significantly smaller tumor volumes”. In assay [6], the “expression of CD40 and CD86 on CD11c positive dendritic cells, versus wild-type” value (“expression of CD40 and CD86 … versus wild-type” for short) is recorded as “significantly reduced”; the “induction of CD40 and CD86 relative to LPS” value is “slightly lower induction”.
Consider `CCCCCCCCCCCCCC(=O)O[C@H](CCCCCCCCCCC)CC(=O)NC1C(OC(=O)C[C@@H](CCCCCCCCCCC)OC(=O)CCCCCCCCCCCCC)[C@H](OP(=O)(O)O)C(CO)O[C@H]1OCCN(C(=O)C[C@@H](CCCCCCCCCCC)OC(=O)CCCCCCCCCCCCC)c1cccc(OP(=O)(O)O)c1` (stereo in doubt) [JL-266], for which, in assay [1] (versus no lipid A mimic), the “enhancement of antigen-specific IFN-gamma response to R9F” value is “did” and the “increase in the immune response (IFN-gamma ELISPOT)” value was roughly 2 fold. In addition, in assay [2], the “tumor volume fold smaller than control DepoVax composition (Group 1)” value was roughly 6.3 fold, the “Tumor Volume (mm^3)” value is reported as 219 ± 139 mm^3 and the “tumor volumes compared to control groups” value is “significantly smaller tumor volumes”. Besides, in assay [3], the “expression of CD40 and CD86 on CD11c positive dendritic cells” value is reported as “strong increased expression”; the “induction of CD40 and CD86 relative to LPS” value is given as “the same as LPS”. In addition, the “tumor volumes compared to control groups” value in assay [4] was “significantly smaller tumor volumes”. Further, in assay [5], the “Tumor Volume (mm^3)” value came out at 380 ± 86 mm^3 and the “tumor volumes compared to control groups” value is “significantly smaller tumor volumes”. Moreover, in assay [6], the “expression of CD40 and CD86 … versus wild-type” value is given as “significantly reduced”; the “induction of CD40 and CD86 relative to LPS” value was “slightly lower induction”.
Regarding “lipopolysaccharide [LPS, reference compound]”, the “expression of CD40 and CD86 on CD11c positive dendritic cells” value in assay [3] is “increase in expression”. The “expression of CD40 and CD86 … versus wild-type” value in assay [6] is recorded as “significantly reduced”.
For the molecule poly I:C [reference compound], the “expression of CD40 and CD86 on CD11c positive dendritic cells” value in assay [3] is recorded as “increase in expression”. In addition, the “expression of CD40 and CD86 … versus wild-type” value in assay [6] is “comparably to wild-type dendritic cells”; in assay [6] (listed as polyI:C), “comparable stimulation”.
